Assay results published in patent publication US20030118627A1 (DABUR RESEARCH FOUNDATION, priority 2001, published 2003).

Experiments:
Format in all cases: cell-based
INT 407 = assay: MTT cytotoxicity assay, INT 407 intestine; settings: Homo sapiens, 24 h, read-out: ED50 values of cytotoxicity
Method: (§1) Briefly, a […] MTT cytotoxicity assay was performed, which is based on the principle of uptake of MTT (3-(4,5-dimethylthiazol-2-yl)-2,5-diphenyl tetrazolium bromide), a tetrazolium salt, by the metabolically active cells where it is metabolized by active mitochondria into a blue colored formazan product that is read spectrophoto-metrically. MTT was dissolved in phosphate buffered saline with a pH of 7.4 to obtain an MTT concentration of 5 mg/ml; the resulting mixture was filtered through a 0.22 micron filter to sterilize and remove a small amount of insoluble residue. For each type of tumor cell, 20,000 to 50,000 cells were seeded in a 96-well culture plate and incubated with the combination in a CO2 incubator for 24 hours. […] The assay was terminated after 24 hours by adding 100 ug (20 ul) of MTT to each well, then incubating for additional one hour, and finally adding 50 ul of 10% SDS-0.01N HCl to each well to lyse the cells and dissolve formazan. After incubating for one hour, the plate was read spectrophotometrically at 540 nm and the percentage cytotoxicity calculated.

L132 = assay: MTT cytotoxicity assay, L132 lung; settings: Homo sapiens; for cytotoxicity at 1000 µM: 1.0 mM; for cytotoxicity at 1000 µM / cytotoxicity at 2500 µM / cytotoxicity at 4000 µM / cytotoxicity at 5000 µM / cytotoxicity at 10000 µM: read-out: Percent cytotoxicity; for cytotoxicity at 2500 µM: 2.5 mM; for cytotoxicity at 4000 µM: 4 mM; for cytotoxicity at 5000 µM: 5 mM; for cytotoxicity at 10000 µM: 10 mM; for IC50: 24 h, read-out: ED50 values of cytotoxicity
Method: as §1

PA 1 = assay: MTT cytotoxicity assay, PA 1 ovary; settings: Homo sapiens; for IC50: 24 h, PA 1 Ovarian, read-out: ED50 values of cytotoxicity; for cytotoxicity at 1000 µM / cytotoxicity at 2500 µM / cytotoxicity at 4000 µM / cytotoxicity at 5000 µM / cytotoxicity at 10000 µM: PA 1 Ovary, read-out: Percent cytotoxicity; for cytotoxicity at 1000 µM: 1.0 mM; for cytotoxicity at 2500 µM: 2.5 mM; for cytotoxicity at 4000 µM: 4 mM; for cytotoxicity at 5000 µM: 5 mM; for cytotoxicity at 10000 µM: 10 mM
Method: as §1

DU145 = assay: MTT cytotoxicity assay, DU145 prostate; settings: Homo sapiens; for cytotoxicity at 1000 µM: DU-145, 1.0 mM; for cytotoxicity at 1000 µM / cytotoxicity at 2500 µM / cytotoxicity at 4000 µM / cytotoxicity at 5000 µM / cytotoxicity at 10000 µM: read-out: Percent cytotoxicity; for cytotoxicity at 2500 µM: DU-145, 2.5 mM; for cytotoxicity at 4000 µM: DU-145, 4 mM; for cytotoxicity at 5000 µM: DU-145, 5 mM; for cytotoxicity at 10000 µM: DU-145, 10 mM; for IC50: DU-145, 24 h, read-out: ED50 values of cytotoxicity
Method: as §1

U87MG = assay: MTT cytotoxicity assay, U87MG glioblastoma; settings: Homo sapiens, U-87 MG, 24 h, read-out: ED50 values of cytotoxicity
Method: as §1

MCF7 = assay: MTT cytotoxicity assay, MCF7 breast; settings: Homo sapiens; for IC50: MCF7, 24 h, MCF 7 Breast, read-out: ED50 values of cytotoxicity; for cytotoxicity at 1000 µM / cytotoxicity at 2500 µM / cytotoxicity at 4000 µM / cytotoxicity at 5000 µM / cytotoxicity at 10000 µM: MCF7 breast, read-out: Percent cytotoxicity; for cytotoxicity at 1000 µM: 1.0 mM; for cytotoxicity at 2500 µM: 2.5 mM; for cytotoxicity at 4000 µM: 4 mM; for cytotoxicity at 5000 µM: 5 mM; for cytotoxicity at 10000 µM: 10 mM
Method: as §1

MOLT 4 = assay: MTT cytotoxicity assay, MOLT 4 leukemia; settings: Homo sapiens; for IC50: 24 h, Molt 4 Leukemia, read-out: ED50 values of cytotoxicity; for cytotoxicity at 1000 µM / cytotoxicity at 2500 µM / cytotoxicity at 4000 µM / cytotoxicity at 5000 µM / cytotoxicity at 10000 µM: MOLT 4 Leukemia, read-out: Percent cytotoxicity; for cytotoxicity at 1000 µM: 1.0 mM; for cytotoxicity at 2500 µM: 2.5 mM; for cytotoxicity at 4000 µM: 4 mM; for cytotoxicity at 5000 µM: 5 mM; for cytotoxicity at 10000 µM: 10 mM
Method: as §1

Miapaca2 = assay: MTT cytotoxicity assay, Miapaca2 pancreas; settings: Homo sapiens; for cytotoxicity at 1000 µM: MIA PaCa-2, 1.0 mM; for cytotoxicity at 1000 µM / cytotoxicity at 2500 µM / cytotoxicity at 4000 µM / cytotoxicity at 5000 µM / cytotoxicity at 10000 µM: read-out: Percent cytotoxicity; for cytotoxicity at 2500 µM: MIA PaCa-2, 2.5 mM; for cytotoxicity at 4000 µM: MIA PaCa-2, 4 mM; for cytotoxicity at 5000 µM: MIA PaCa-2, 5 mM; for cytotoxicity at 10000 µM: MIA PaCa-2, 10 mM; for IC50: MIA PaCa-2, 24 h, read-out: ED50 values of cytotoxicity
Method: as §1

293 = assay: MTT cytotoxicity assay, 293 kidney; settings: Homo sapiens, HEK293, 24 h, read-out: ED50 values of cytotoxicity
Method: as §1

Hep2 = assay: MTT cytotoxicity assay, Hep2 larynx; settings: Homo sapiens, HEp-2, 24 h, read-out: ED50 values of cytotoxicity
Method: as §1

KB = assay: MTT cytotoxicity assay, KB oral; settings: Homo sapiens, 24 h, read-out: ED50 values of cytotoxicity
Method: as §1

PTC = assay: MTT cytotoxicity assay, PTC colon; settings: Homo sapiens; for cytotoxicity at 1000 µM: 1.0 mM; for cytotoxicity at 1000 µM / cytotoxicity at 2500 µM / cytotoxicity at 4000 µM / cytotoxicity at 5000 µM / cytotoxicity at 10000 µM: read-out: Percent cytotoxicity; for cytotoxicity at 2500 µM: 2.5 mM; for cytotoxicity at 4000 µM: 4 mM; for cytotoxicity at 5000 µM: 5 mM; for cytotoxicity at 10000 µM: 10 mM; for IC50: 24 h, read-out: ED50 values of cytotoxicity
Method: as §1

CC(=O)C(O)N1C(=O)CCC1C(=O)OCc1ccccc1 (stereo not shown) [MGC-3, N-(1-hydroxy-2-ketopropyl)-benzylpyroglutamate]
IC50 (INT 407): 2850 ± 700 µM | cytotoxicity at 1000 µM (L132): 0% | cytotoxicity at 2500 µM (L132): 30 ± 2.9% | cytotoxicity at 4000 µM (L132): 45.8 ± 4.5% | cytotoxicity at 5000 µM (L132): 52.9 ± 5.2% | cytotoxicity at 10000 µM (L132): 79.4 ± 5.9% | IC50 (L132): 4600 ± 1600 µM | IC50 (PA 1): 1800 ± 600 µM | cytotoxicity at 1000 µM (PA 1): 42.8 ± 4.9% | cytotoxicity at 2500 µM (PA 1): 64.8 ± 5.9% | cytotoxicity at 4000 µM (PA 1): 66.9 ± 5.9% | cytotoxicity at 5000 µM (PA 1): 78.9 ± 7.4% | cytotoxicity at 10000 µM (PA 1): 88.5 ± 8.4% | cytotoxicity at 1000 µM (DU145): 29.4 ± 4.2% | cytotoxicity at 2500 µM (DU145): 56.9 ± 4.3% | cytotoxicity at 4000 µM (DU145): 64.8 ± 6.3% | cytotoxicity at 5000 µM (DU145): 87.9 ± 8.3% | cytotoxicity at 10000 µM (DU145): 88.4 ± 4% | IC50 (DU145): 1800 ± 200 µM | IC50 (U87MG): > 5000 µM | IC50 (MCF7): > 5000 µM | cytotoxicity at 1000 µM (MCF7): 0% | cytotoxicity at 2500 µM (MCF7): 0% | cytotoxicity at 4000 µM (MCF7): 0% | cytotoxicity at 5000 µM (MCF7): 2.7 ± 0.1% | cytotoxicity at 10000 µM (MCF7): 12.4 ± 1% | IC50 (MOLT 4): 1650 ± 500 µM | cytotoxicity at 1000 µM (MOLT 4): 42.1 ± 4.3% | cytotoxicity at 2500 µM (MOLT 4): 54.9 ± 4.3% | cytotoxicity at 4000 µM (MOLT 4): 65.9 ± 4.3% | cytotoxicity at 5000 µM (MOLT 4): 87.9 ± 7.3% | cytotoxicity at 10000 µM (MOLT 4): 88.3 ± 7.4% | cytotoxicity at 1000 µM (Miapaca2): 0% | cytotoxicity at 2500 µM (Miapaca2): 0% | cytotoxicity at 4000 µM (Miapaca2): 0% | cytotoxicity at 5000 µM (Miapaca2): 12.9 ± 1% | cytotoxicity at 10000 µM (Miapaca2): 14.1 ± 1.9% | IC50 (Miapaca2): > 5000 µM | IC50 293: 2000 ± 300 µM | IC50 (Hep2): 2600 µM | IC50 (KB): 2550 ± 400 µM | cytotoxicity at 1000 µM (PTC): 0% | cytotoxicity at 2500 µM (PTC): 32.9 ± 3.8% | cytotoxicity at 4000 µM (PTC): 54.9 ± 3.8% | cytotoxicity at 5000 µM (PTC): 56.8 ± 5.7% | cytotoxicity at 10000 µM (PTC): 86.9 ± 7.6% | IC50 (PTC): 3800 ± 700 µM

CCCCOC(=O)C1CCC(=O)N1C(OC(C)=O)C(C)=O (stereo not shown) [MGC-5, N-(1-acetoxy-2-ketopropyl)-butylpyroglutamate]
IC50 (INT 407): 2600 ± 1100 µM | cytotoxicity at 1000 µM (L132): 2.9 ± 0.1% | cytotoxicity at 2500 µM (L132): 36.9 ± 4.9% | cytotoxicity at 4000 µM (L132): 57.8 ± 4% | cytotoxicity at 5000 µM (L132): 59 ± 6% | cytotoxicity at 10000 µM (L132): 76.3 ± 5.4% | IC50 (L132): 3600 ± 1100 µM | IC50 (PA 1): 1600 ± 100 µM | cytotoxicity at 1000 µM (PA 1): 31.8 ± 3.1% | cytotoxicity at 2500 µM (PA 1): 58.8 ± 5.3% | cytotoxicity at 4000 µM (PA 1): 83.9 ± 7.8% | cytotoxicity at 5000 µM (PA 1): 85.9 ± 6.2% | cytotoxicity at 10000 µM (PA 1): 86.9 ± 8.4% | cytotoxicity at 1000 µM (DU145): 27.9 ± 0.4% | cytotoxicity at 2500 µM (DU145): 58.4 ± 5.9% | cytotoxicity at 4000 µM (DU145): 59 ± 4.3% | cytotoxicity at 5000 µM (DU145): 68.3 ± 4.6% | cytotoxicity at 10000 µM (DU145): 80 ± 7% | IC50 (DU145): 1900 ± 700 µM | IC50 (U87MG): 3400 ± 1100 µM | IC50 (MCF7): 5000 ± 2100 µM | cytotoxicity at 1000 µM (MCF7): 0% | cytotoxicity at 2500 µM (MCF7): 0% | cytotoxicity at 4000 µM (MCF7): 34.9 ± 3.9% | cytotoxicity at 5000 µM (MCF7): 51.9 ± 3.8% | cytotoxicity at 10000 µM (MCF7): 58.7 ± 5% | IC50 (MOLT 4): 1500 ± 100 µM | cytotoxicity at 1000 µM (MOLT 4): 25.9 ± 2.9% | cytotoxicity at 2500 µM (MOLT 4): 61 ± 4.8% | cytotoxicity at 4000 µM (MOLT 4): 76 ± 7.1% | cytotoxicity at 5000 µM (MOLT 4): 82.9 ± 6.9% | cytotoxicity at 10000 µM (MOLT 4): 87.9 ± 6.9% | cytotoxicity at 1000 µM (Miapaca2): 0% | cytotoxicity at 2500 µM (Miapaca2): 24.8 ± 2.6% | cytotoxicity at 4000 µM (Miapaca2): 43.8 ± 3.9% | cytotoxicity at 5000 µM (Miapaca2): 54.9 ± 4.2% | cytotoxicity at 10000 µM (Miapaca2): 67.9 ± 4% | IC50 (Miapaca2): 4300 ± 1600 µM | IC50 293: 1900 ± 700 µM | IC50 (Hep2): 1900 µM | IC50 (KB): 2000 ± 700 µM | cytotoxicity at 1000 µM (PTC): 2.9 ± 0.3% | cytotoxicity at 2500 µM (PTC): 37.9 ± 3.9% | cytotoxicity at 4000 µM (PTC): 53.9 ± 5.4% | cytotoxicity at 5000 µM (PTC): 85.9 ± 8.9% | cytotoxicity at 10000 µM (PTC): 89.2 ± 7.4% | IC50 (PTC): 3800 ± 900 µM
